Assay [1] deals with peripheral nerve injury sheep model. Kind of assay: Mechanical allodynia (hindlimb withdrawal threshold, von Frey filaments) after intrathecal morphine in the peripheral nerve injury sheep model. In kind it is in vivo. The note with it: intrathecal morphine sulfate 50 to 1200 micrograms, three weeks after peripheral nerve injury. On the procedure:
After the placement of an intrathecal catheter and the documentation of a lack of any neurological deficits, common peroneal nerve injury surgery was performed. As described previously, the sheep was premedicated with intramuscular ketamine, intubated and mechanically ventilated. The sheep was positioned laterally and the hind leg was sterilely prepared and draped. A vertical incision was made mid-thigh. The semimembranous and semitendinous muscle bellies were separated to expose the common peroneal nerve and tibial nerve. The common peroneal nerve was ligated with 2-0 silk suture and cut distally. A 1-cm segment was removed from the distal stump to prevent re-growth. Fascia and skin were closed. […]
Based on the response to the first von-frey stimuli presented the following stimulus was increased if a negative or null response or decreased if there was a positive response. The 50% response threshold was calculated using the formula: 50% g threshold=(10^[x^f^+κδ]/10,000. The 50% withdrawal thresholds to von-frey filaments were used to assess the behavior change. To avoid inter-observer variability, one investigator did the majority of behavioral experiments. Additionally, each sheep did only one behavioral test per day.
Baseline withdrawal thresholds to mechanical stimulation were measured prior to morphine administration and at ten-minute intervals post-morphine. […]

The test system is the same in assay [2]. Kind of assay: Mechanical hyperalgesia (pin-prick test) after intrathecal morphine in the peripheral nerve injury sheep model. The format is in vivo. On the procedure: Adult female merino sheep weighing 40-60 kg were used to produce the peripheral nerve injury sheep model. All experimental procedures were approved by the Institutional of Animal Care and Use Committee at the University of Texas Medical Branch and were in accordance with the guidelines of National Institutes of Health and of the International Association for the study of Pain (IASP).
Sheep were fasted for 24 hours prior to surgery. General anesthesia was given followed by 600 mg IM injection of ketamine. An intravenous line was placed in the external jugular and the sheep received an additional 200 mg of ketamine IV and a prophylactic dose of cefazolin 1 g IV. After intubation, the sheep were maintained on 2% isoflurane in oxygen and mechanically ventilated. The sheep received IV fluids (0.9% Normal Saline). Body temperature was maintained with a circulating water pad. Oxygen saturation was monitored and maintained between 98-100%. Heart rate and blood pressure remained within normal limits and required no adjustments. Sheep was positioned prone with hind limbs positioned cephalad beside the abdomen. A positioning pillow was placed under the chest, raising the head and chest and allowing a lordotic curve of the lumbar spine. The sheep was loosely secured to the operating table. The lumbrosacral area was sterilely prepped with betadine and draped. A vertical midline incision was made over the L-6 to S-2 vertebrae. The spinous processes of L6 and S1 were partially resected to allow greater exposure of the dura. A purse string of 7-O nylon was placed in the dura, the dura carefully lifted and nicked. A RACZ epidural catheter (16 Ga×36) catheter with snaplock catheter/syringe adapter was placed into the subarachnoid space and advanced until the 10 cm mark was at the opening of the dura. Once CSF flow through the catheter was confirmed, the dura was pulled close to the catheter with the purse string and the catheter was secured to the muscle fascia. The dura, muscle fascia, and skin were closed. The catheter was looped and secured subcutaneously. The catheter was then tunneled and secured to the skin of the sheep with suture. The sheep was allowed 5 days to recover and was tested for neurologic deficits. Animals with neurologic deficits were sacrificed.
After the placement of an intrathecal catheter and the documentation of a lack of any neurological deficits, common peroneal nerve injury surgery was performed. As described previously, the sheep was premedicated with intramuscular ketamine, intubated and mechanically ventilated. The sheep was positioned laterally and the hind leg was sterilely prepared and draped. A vertical incision was made mid-thigh. The semimembranous and semitendinous muscle bellies were separated to expose the common peroneal nerve and tibial nerve. The common peroneal nerve was ligated with 2-0 silk suture and cut distally. A 1-cm segment was removed from the distal stump to prevent re-growth. Fascia and skin were closed.
With the sheep in the stanchion, a pin-prick test was performed using a 300 gram von-frey filament. […] The duration of hindlimb withdrawal was recorded^14.
Three weeks after peroneal nerve injury, the analgesic effect of morphine was measured. […]
Baseline withdrawal thresholds to mechanical stimulation were measured prior to morphine administration and at ten-minute intervals post-morphine. The anti-nociceptive effect of morphine time course was determined by measuring the pin-prick frequency every 10-min after intrathecal administration. […]

[3] abbreviates: 200 micrograms intrathecal, measured by pin prick.
Where [4] appears, read: intrathecal 2 to 1200 micrograms, three weeks after peroneal nerve injury, 30 minutes after drug delivery.

Entries after “also recorded” stand apart in the source; their conditions may differ.

Consider `CN1CC[C@]23c4c5ccc(O)c4O[C@H]2[C@@H](O)C=C[C@H]3[C@H]1C5` [morphine], for which, in assay [1], the “hindlimb withdrawal threshold, reversal (contralateral hindlimb)” value was “completely reversed” and the “increase of hindlimb withdrawal threshold on the ipsilateral hindlimb” value stood at 36%. For the same compound, in assay [2] (setting [3]), the duration of analgesia was > 120 min and the “time of peak analgesia” value worked out at 30 min. Also, in assay [2] (setting [4]), the “reduction in efficacy, ipsilateral compared to contralateral dose response curve” value is “approximately 4 fold” and the “reduction in potency, ipsilateral compared to contralateral dose response curve” value was “approximately 2 fold”. The “analgesic effect after nerve injury / injured versus contralateral hindlimb (in words)” value in assay [2] (intrathecal, ipsilateral (nerve injured) vs contralateral (non-injured) hindlimb) is listed as “significantly reduced; also recorded: much less analgesia; also recorded: more potency on the contralateral”.
